Measured values reported in patent US20250360164A1, “METHOD FOR REDUCING THE INCIDENCE OF PECTORAL MYOPATHY IN POULTRY FEED” (CAN TECHNOLOGIES, INC., priority 2017, published 2025).

Columns and labels:
wooden breast = conditions: previous state-of-the-art, poster 450 P, 2015; cited from earlier work
[1] = nitrate dosage up to at least 400 mg/kg body weight, starter and grower phases
Experimental: The amount of one or more nitrates, one or more nitrites, or a mixture thereof fed to the poultry in the feed compositions and/or methods described herein can also be expressed in mg of nitrates and/or nitrites per kg body weight of the poultry. In some embodiments, the nitrate/nitrite amount in the feed composition is less than 500 mg/kg, less than 450 mg/kg, less than 400 mg/kg, or less than 300 mg/kg. In some embodiments, the nitrate/nitrate amount in the feed composition is in the range of 10 to 500 mg/kg, 10 to 400 mg/kg; 10 to 300 mg/kg; 25 to 400 mg/kg; 25 to 200 mg/kg; 50 to 400 mg/kg; 50 to 150 mg/kg; or 100 to 400 mg/kg.

Row | Structure (SMILES) | reduction of wooden breast (wooden breast) | effect on growth [1] | nitrate poisoning [1]
1 | N=C(N)NCCC[C@H](N)C(=O)O [arginine] | inefficient in providing effective reduction |  | 
2 | O=[N+]([O-])[O-].O=[N+]([O-])[O-].[Ca+2] [calcium nitrate] |  | does not negatively affect growth | does not cause nitrate poisoning
